# Results published in patent US20100278875A1, “PROSTAGLANDIN E2 (PGE2) AS AN ADJUVANT IN MONOCLONAL ANTIBODY GENERATION” (priority 2006, published 2010).
# Tests used:
# nominal immunogen (AgX) = test: Antibody titers in Balb/c mice against a nominal immunogen (AgX) in the presence or absence of PGE2; type: in vivo; settings: following 2 injections, versus PBS
# Experimental: (§1) To generate antibody against ovalbumin (OVA), Balb/c mice were immunized with 25 ug of OVA emulsified in adjuvant. To test the effect of PGE2, the mice were injected with 1 nmol PGE2 intraperitoneally (i.p.) 3 hours prior to immunization, and again at 24 and 48 hours post immunization. For the control group, the mice were injected (i.p.) with an equal volume of PBS 3 hours prior to immunization. The mice were boosted with 25 ug OVA on Day 14 (i.p.) and Day 28 (subcutaneously). Anti-OVA titers were determined on Day 27 and Day 35.
# (§2) To assess the effect of PGE2 on generating antibodies against difficult targets, a nominal immunogen (AgX) known to be difficult to raise an antibody response was used. Briefly, Balb/c mice were immunized following the same schedule outlined above with either 25 ug of OVA or AgX and titered on Day 27 following 2 i.p. injections. […] Therefore, PGE2 enhances immune responses in Balb/c mice and may be used to shorten immunization time lines.
# Given the difficult nature of this immunogen to generate antibodies against, this is a significant increase. Therefore, PGE2 can be used in Balb/c mice to enhance immune responses not only to strong immunogens, but also to difficult/nominal immunogens.
# ovalbumin (OVA) = test: Anti-OVA antibody titers in Balb/c mice immunized with OVA in the presence or absence of PGE2; type: in vivo
# Experimental: as §1, §2
smiles,measurement,setting,value
"CCCCC[C@H](O)/C=C/[C@H]1[C@H](O)CC(=O)[C@@H]1C/C=C\CCCC(=O)O [PGE2, Prostaglandin E2]",increase of anti-AgX titers,nominal immunogen (AgX),2-3 fold
same,effect on anti-OVA titers (in words),"ovalbumin (OVA); Table 1 experiment, Day 27 and Day 35",significantly enhanced anti-OVA titers
same,effect on anti-OVA titers (in words),"ovalbumin (OVA); Table 2 experiment, following only 2 immunogen injections",enhanced anti-OVA titers
